Data reported in patent US10448639B2, “Fungicidal pyrazoles” (FMC CORPORATION, priority 2009, dated 2019).
Marks after values point to notes of the source that are not given here.

Legend:
[1] = system: Puccinia recondita f. sp. tritici; experiment: Test H: wheat leaf rust, curative spray on inoculated wheat seedlings, visual disease rating; settings: for Test H rating (% disease control) / Test H disease control rating: 100 = 100% disease control; for Test H disease control rating: sprayed after inoculation, 0 = no disease control relative to controls
Source text: (§1) General protocol for preparing test suspensions for Tests A-J: the test compounds were first dissolved in acetone in an amount equal to 3% of the final volume and then suspended at the desired concentration (in ppm) in acetone and purified water (50/50 mix by volume) containing 250 ppm of the surfactant Trem® 014 (polyhydric alcohol esters). The resulting test suspensions were then used in Tests A-J. Spraying a 200 ppm test suspension to the point of run-off on the test plants was the equivalent of a rate of 500 g/ha. Unless otherwise indicated, the rating values indicate a 200 ppm test suspension was used. (An asterisk “*” next to the rating value indicates a 40 ppm test suspension was used.)
Wheat seedlings were inoculated with a spore suspension of Puccinia recondita f. sp. tritici (the causal agent of wheat leaf rust) and incubated in a saturated atmosphere at 20° C. for 24 h, and then moved to a growth chamber at 20° C. for 2 days. At the end of this time the test suspension was sprayed to the point of run-off, and then the seedlings were moved to a growth chamber at 20° C. for 6 days after which time visual disease ratings were made.

[2] = system: Puccinia recondita f. sp. tritici; experiment: Test I: wheat leaf rust, preventive spray on wheat seedlings, visual disease rating; settings: for Test I rating (% disease control) / Test I disease control rating: 100 = 100% disease control; for Test I disease control rating: sprayed the day before inoculation, 0 = no disease control relative to controls
Alternaria solani = experiment: Test C: tomato early blight, preventive spray on tomato seedlings, visual disease rating; settings: for Test C rating (% disease control) / Test C disease control rating: 100 = 100% disease control; for Test C disease control rating: 0 = no disease control relative to controls
Septoria nodorum = experiment: Test F: Septoria glume blotch, preventive spray on wheat seedlings, visual disease rating; settings: for Test F rating (% disease control) / Test F disease control rating: 100 = 100% disease control; for Test F disease control rating: 0 = no disease control relative to controls
Botrytis cinerea = experiment: Test B: tomato Botrytis, preventive spray on tomato seedlings, visual disease rating; settings: for Test B rating (% disease control) / Test B disease control rating: 100 = 100% disease control; for Test B disease control rating: 0 = no disease control relative to controls
[3] = system: Erysiphe graminis f sp. tritici; experiment: Test J: wheat powdery mildew, preventive spray on wheat seedlings, visual disease rating; settings: for Test J rating (% disease control) / Test J disease control rating: 100 = 100% disease control; for Test J disease control rating: sprayed the day before inoculation, 0 = no disease control relative to controls
Septoria tritici = experiment: Test G: wheat leaf blotch, preventive spray on wheat seedlings, visual disease rating; settings: for Test G rating (% disease control) / Test G disease control rating: 100 = 100% disease control; for Test G disease control rating: sprayed the day before inoculation, 0 = no disease control relative to controls
Source text: as §1
The test suspension was sprayed to the point of run-off on wheat seedlings. The following day the seedlings were inoculated with a spore suspension of Septoria tritici (the causal agent of wheat leaf blotch) and incubated in saturated atmosphere at 24° C. for 48 h. and then the seedlings were moved to a growth chamber at 20° C. for 19 additional days, after which time visual disease ratings were made.

[4] = wheat leaf rust, curative spray, 0 = no control
[5] = wheat leaf rust, preventive spray, 0 = no control
[6] = tomato early blight, preventive spray, 0 = no control
[7] = Septoria glume blotch on wheat, preventive spray, 0 = no control
[8] = tomato Botrytis, preventive spray, 0 = no control
[9] = wheat powdery mildew, preventive spray, 0 = no control
[10] = wheat leaf blotch, preventive spray, 0 = no control
[11] = wheat leaf rust, curative, 0 = no control relative to controls
[12] = wheat leaf rust, preventive, 0 = no control relative to controls
[13] = tomato early blight, 0 = no control relative to controls
[14] = Septoria glume blotch, 0 = no control relative to controls
[15] = tomato Botrytis, 0 = no control relative to controls
[16] = wheat powdery mildew, 0 = no control relative to controls
[17] = wheat leaf blotch, 0 = no control relative to controls

| SMILES | Test H rating (% disease control) [1, 4] [%] | Test I rating (% disease control) [2, 5] [%] | Test C rating (% disease control) (Alternaria solani; [6]) [%] | Test F rating (% disease control) (Septoria nodorum; [7]) [%] | Test B rating (% disease control) (Botrytis cinerea; [8]) [%] | Test J rating (% disease control) [3, 9] [%] | Test G rating (% disease control) (Septoria tritici; [10]) [%] | other results |
| --- | --- | --- | --- | --- | --- | --- | --- | --- |
| COc1cc(OC)cc(-c2c(C)nn(C)c2Oc2c(F)cc(C#N)cc2F)c1 [compound 85] | 0 | 19 | 0 | 0 | 0 | 0 | 17 |  |
| C=CCN(c1c(F)cc(OC)cc1F)c1c(-c2ccc(F)cc2Cl)c(C)nn1C [compound 159] |  |  |  |  |  |  |  | Test H rating (% disease control) [1, 11]: 74%; Test I rating (% disease control) [2, 12]: 99%; Test C rating (% disease control) (Alternaria solani; [13]): 0%; Test F rating (% disease control) (Septoria nodorum; [14]): 0%; Test B rating (% disease control) (Botrytis cinerea; [15]): 99%; Test J rating (% disease control) [3, 16]: 100%; Test G rating (% disease control) (Septoria tritici; [17]): 100% |
| Cc1nn(C)c(Oc2ccc(Cl)c(C#N)c2)c1-c1c(F)cc(F)cc1F [compound 224] |  |  |  |  |  |  |  | Test H rating (% disease control) [1, 11]: 17%; Test I rating (% disease control) [2, 12]: 91%; Test C rating (% disease control) (Alternaria solani; [13]): 51%; Test F rating (% disease control) (Septoria nodorum; [14]): 0%; Test B rating (% disease control) (Botrytis cinerea; [15]): 99%; Test J rating (% disease control) [3, 16]: 100%; Test G rating (% disease control) (Septoria tritici; [17]): 100% |
| COc1cc(F)c(Nc2c(-c3ccc(F)cc3F)c(C)nn2C)c(F)c1 [compound 42] | 0 | 94 | 0 | 0 | 100 | 82 | 93 |  |
| Cc1nn(C)c(Nc2ccc(C#N)cn2)c1-c1ccc(F)cc1Cl [compound 67] | 24 | 95 | 0 | 0 | 95 | 86 | 99 |  |
| Cc1cccc(Oc2c(-c3c(F)cc(F)cc3F)c(C)nn2C)c1 [compound 219] |  |  |  |  |  |  |  | Test H rating (% disease control) [1, 11]: 17%; Test I rating (% disease control) [2, 12]: 0%; Test C rating (% disease control) (Alternaria solani; [13]): 0%; Test F rating (% disease control) (Septoria nodorum; [14]): 0%; Test B rating (% disease control) (Botrytis cinerea; [15]): 70%; Test J rating (% disease control) [3, 16]: 0%; Test G rating (% disease control) (Septoria tritici; [17]): 0% |
| Cc1nn(C)c(Nc2ccc([N+](=O)[O-])cc2F)c1-c1ccc(F)cc1Cl [compound 344] |  |  |  |  |  |  |  | Test H disease control rating ([1]; wheat leaf rust): 62%; Test I disease control rating ([2]; wheat leaf rust): 100%; Test C disease control rating (Alternaria solani; tomato early blight): 40%; Test F disease control rating (Septoria nodorum; Septoria glume blotch on wheat): 87%; Test B disease control rating (Botrytis cinerea; tomato Botrytis): 100%; Test J disease control rating ([3]; wheat powdery mildew): 100%; Test G disease control rating (Septoria tritici; wheat leaf blotch): 100% |
| Cc1nn(C)c(Nc2ccc(F)cc2Cl)c1-c1ccc(C#N)cc1Cl [compound 338] |  |  |  |  |  |  |  | Test H disease control rating ([1]; wheat leaf rust): 8%; Test I disease control rating ([2]; wheat leaf rust): 100%; Test C disease control rating (Alternaria solani; tomato early blight): 37%; Test F disease control rating (Septoria nodorum; Septoria glume blotch on wheat): 40%; Test B disease control rating (Botrytis cinerea; tomato Botrytis): 100%; Test J disease control rating ([3]; wheat powdery mildew): 99%; Test G disease control rating (Septoria tritici; wheat leaf blotch): 100% |
| Cc1nn(C)c(Nc2cccc(F)c2)c1-c1c(F)cc(C#N)cc1F [compound 136] | 0 | 99 | 71 | 86 | 99 | 100 | 99 |  |
| Cc1nn(C)c(Nc2c(F)cc(F)cc2F)c1-c1ccc(Cl)cc1Cl [compound 75] | 95 | 99 | 98 | 98 | 100 | 97 | 99 |  |
| CC(=O)Nc1ccc(Oc2c(-c3ccc(F)cc3Cl)c(C)nn2C)c(F)c1 [compound 71] | 0 | 91 | 0 | 0 | 93 | 67 | 96 |  |
| CCn1nc(C)c(-c2ccc(Cl)cc2Cl)c1Nc1ccc(F)cc1F [compound 70] | 41 | 85 | 0 | 0 | 99 | 98 | 99 |  |
| Cc1nn(C)c(Nc2ccc(Cl)cc2)c1-c1c(F)cc(C#N)cc1F [compound 110] | 0 | 97 | 66 | 98 | 99 | 94 | 99 |  |
| COc1ccc(-c2c(C)nn(C)c2Oc2ccc(C#N)cc2Cl)c(Br)c1 [compound 318] |  |  |  |  |  |  |  | Test H disease control rating ([1]; wheat leaf rust): 0%; Test I disease control rating ([2]; wheat leaf rust): 97%; Test C disease control rating (Alternaria solani; tomato early blight): 0%; Test F disease control rating (Septoria nodorum; Septoria glume blotch on wheat): 0%; Test B disease control rating (Botrytis cinerea; tomato Botrytis): 99%; Test J disease control rating ([3]; wheat powdery mildew): 89%; Test G disease control rating (Septoria tritici; wheat leaf blotch): 100% |
| COc1cc(Oc2c(-c3c(F)cc(F)cc3F)c(C)nn2C)ccc1[N+](=O)[O-] [compound 151] |  |  |  |  |  |  |  | Test H rating (% disease control) [1, 11]: 0%; Test I rating (% disease control) [2, 12]: 54%; Test C rating (% disease control) (Alternaria solani; [13]): 9%; Test F rating (% disease control) (Septoria nodorum; [14]): 0%; Test B rating (% disease control) (Botrytis cinerea; [15]): 99%; Test J rating (% disease control) [3, 16]: 64%; Test G rating (% disease control) (Septoria tritici; [17]): 96% |
| Cc1nn(C)c(Oc2c(F)cc([N+](=O)[O-])cc2F)c1-c1c(F)cc(F)cc1F [Compound 54, 5-(2,6-Difluoro-4-nitrophenoxy)-1,3-dimethyl-4-(2,4,6-trifluorophenyl)-1H-pyrazole] |  |  |  |  |  |  |  | pest or weed control at 200 µg/mL ([1]; 144 h, read-out: Test H rating (% disease control)): 0%; pest or weed control at 200 µg/mL ([2]; 192 h, read-out: Test I rating (% disease control)): 95%; pest or weed control at 200 µg/mL (Alternaria solani; Alternaria solani, in Solanum lycopersicum, 168 h, read-out: Test C rating (% disease control)): 0%; pest or weed control at 200 µg/mL (Septoria nodorum; Parastagonospora nodorum, in Triticum aestivum, 192 h, read-out: Test F rating (% disease control)): 0%; pest or weed control at 200 µg/mL (Botrytis cinerea; Botrytis cinerea, in Solanum lycopersicum, 120 h, read-out: Test B rating (% disease control)): 96%; pest or weed control at 200 µg/mL ([3]; Blumeria graminis, in Triticum aestivum, 192 h, read-out: Test J rating (% disease control)): 95%; pest or weed control at 200 µg/mL (Septoria tritici; Zymoseptoria tritici, in Triticum aestivum, 504 h, read-out: Test G rating (% disease control)): 41% |
| COc1cc(F)c(Nc2c(-c3cccc(Cl)c3)c(C)nn2C)c(F)c1 [compound 25] | 0 | 94 | 0 | 0 | 100 | 79 | 100 |  |
| COc1cc(F)c(-c2c(C)nn(C)c2Nc2ccc(Cl)nc2)c(F)c1 [compound 34] |  |  |  |  |  |  |  | Test H rating (% disease control), value marked * ([1]; wheat leaf rust, curative spray, rating marked with asterisk (different test condition, key not given)): 0* %; Test I rating (% disease control), value marked * ([2]; wheat leaf rust, preventive spray, rating marked with asterisk (different test condition, key not given)): 76* %; Test C rating (% disease control), value marked * (Alternaria solani; tomato early blight, preventive spray, rating marked with asterisk (different test condition, key not given)): 97* %; Test F rating (% disease control), value marked * (Septoria nodorum; Septoria glume blotch, preventive spray, rating marked with asterisk (different test condition, key not given)): 0* %; Test B rating (% disease control), value marked * (Botrytis cinerea; tomato Botrytis, preventive spray, rating marked with asterisk (different test condition, key not given)): 100* %; Test J rating (% disease control), value marked * ([3]; wheat powdery mildew, preventive spray, rating marked with asterisk (different test condition, key not given)): 0* %; Test G rating (% disease control), value marked * (Septoria tritici; wheat leaf blotch, preventive spray, rating marked with asterisk (different test condition, key not given)): 96* % |
| COc1ccc(Nc2c(-c3ccc(F)cc3F)c(C)nn2C)cc1OC [compound 72] | 59 | 0 | 0 | 0 | 0 | 0 | 0 |  |
| COc1cc(F)c(-c2c(C)nn(C)c2Nc2ccc(F)cc2C)c(F)c1 [compound 88] | 95 | 99 | 100 | 99 | 100 | 100 | 98 |  |
